In patent US11305012B2, “Binding molecules specific for HER3 and uses thereof” (MedImmune, LLC, priority 2013, dated 2022):

Experiments:
[1] = system: human MCF-7 breast cancer xenograft; test: Orthotopic human MCF-7 breast cancer xenograft model; assay type: in vivo, mouse; settings: MCF-7 orthotopic, 10 mg/kg
Experimental: Human MCF-7 breast cancer cells were maintained at 37° C. in a 5% CO2 incubator in Optimem medium containing glutamax, 2.4/L sodium bicarbonate, Hepes and 5% fetal bovine serum. Orthotopic xenografts were established by injecting 5×10^6 cells per mouse (suspended in 50% matrigel) into the mammary fat pad on the right flank of 4 to 6-week-old athymic nu/nu mice. Estrogen pellets (0.36 mg) were placed under the skin of the left flank 1-2 days before cell injection. […] Paclitaxel was administered intravenously at 10 mg per kilogram body weight. Caliper measurements were used to calculate tumor volumes using the formula: tumor volume=π÷6(length×width×width) • for tumors grown in mice.

[2] = system: HER3, pHER3 and pAKT in SW620, SW480, Colo205, LOVO, HCT15, Caco-2; test: HRG-stimulated HER3 signaling in CRC tumor cell lines (Western); assay type: cell-based, human; settings: antibodies 10 μg/mL, gefitinib 5 μM, HRG 50 ng/mL
Experimental: In the presence of the HER3 ligand heregulin (HRG), HER3 heterodimerizes with EGFR or HER2, which leads to phosphorylation of HER3 and transmission of an oncogenic signal via phosphoinositide 3 kinase (PI3K) and protein kinase B (PKB), also known as AKT. A collection of CRC models were characterized to determine which receptor tyrosine kinase, EGFR or HER2, is the major driver of signaling through HER3. […] Briefly, cells were seeded into 24-well plates at a density of 1.5×10^5 cells per well. […] After 5-6 hours of incubation at 37° C., HRG was added at 50 ng/mL into one set of cells for 15 minutes at 37° C. All cells were then washed with cold PBS and lysed by the addition of 60 μL of 2×SDS (sodium dodecyl sulfate) sample buffer (Invitrogen). Lysates were transferred to 1.5 mL tubes and boiled for 5 minutes followed by chilling on ice for 2 minutes. Equal volumes (20 μL) of protein samples were resolved in NuPAGE Novex Bis-Tris gels (Invitrogen) before transfer to polyvinylidene fluoride (PVDF) membranes (Invitrogen). […] After washing, protein bands were detected on X-ray film by using SuperSignal West Pico Chemiluminescent Substrate (Pierce/Thermo Scientific).

MDA-MB-361 xenografts = test: Orthotopic human MDA-MB-361 breast cancer xenograft model; assay type: in vivo, mouse; settings: trastuzumab and rhuMAb 2C4 10 mg/kg, lapatinib 100 mg/kg twice daily, 2C2-YTE 30 mg/kg
Experimental: (§1) Orthotopic xenografts were established by injecting 5×10^6 cells per mouse (suspended in 50% matrigel) into the mammary fat pad on the right flank of 4 to 6-week-old athymic nu/nu mice. Estrogen pellets (0.36 mg) were placed under the skin of the left flank 1-2 days before cell injection. […] Lapatinib was administered by oral gavaging at 100 mg per kilogram body weight. Caliper measurements were used to calculate tumor volumes using the formula: tumor volume=π÷6(length×width×width) • for tumors grown in mice.

BT-474 xenografts = test: Orthotopic human BT-474 breast cancer xenograft model; assay type: in vivo, mouse; settings: BT-474 orthotopic, antibodies 30 mg/kg, lapatinib 100 mg/kg
Experimental: as §1, with “1×10^7” for “5×10^6”

[3] = system: JIMT-1 breast cancer xenografts; test: Orthotopic human JIMT-1 breast cancer xenograft model; assay type: in vivo, mouse
Experimental: Orthotopic xenografts were established by injecting 5×10^6 cells per mouse (suspended in 50% matrigel) into the mammary fat pad on the right flank of 4 to 6-week-old athymic nu/nu mice. […] Treatment with antibodies were administered starting at day 8 post-implantation of JIMT-1 cells. […]

[4] = 10 mpk (each), day 32 post-implantation of JIMT-1 cells, vs control IgG1

CC(=O)O[C@H]1C(=O)[C@@]2(C)[C@H]([C@H](OC(=O)c3ccccc3)[C@]3(O)C[C@H](OC(=O)[C@H](O)[C@@H](NC(=O)c4ccccc4)c4ccccc4)C(C)=C1C3(C)C)[C@]1(OC(C)=O)CO[C@@H]1C[C@@H]2O [Paclitaxel, paclitaxel, reference compound]
anti-tumor efficacy (in words) [1]: clear anti-tumor efficacy

COc1cc2ncnc(Nc3ccc(F)c(Cl)c3)c2cc1OCCCN1CCOCC1 [gefitinib]
effect on HRG ligand-dependent signaling (HER3, pHER3, pAKT; in words) [2]: no effect

CS(=O)(=O)CCNCc1ccc(-c2ccc3ncnc(Nc4ccc(OCc5cccc(F)c5)c(Cl)c4)c3c2)o1 [lapatinib, reference compound]
anti-tumor efficacy (in words) (MDA-MB-361 xenografts): showed anti-tumor efficacy
anti-tumor efficacy (in words) (BT-474 xenografts): tumor stasis

pertuzumab [RhuMAb 2C4, reference compound]
anti-tumor efficacy (in words) (MDA-MB-361 xenografts): showed anti-tumor efficacy
effect on HRG ligand-dependent signaling (HER3, pHER3, pAKT; in words) [2]: inhibit HRG ligand-dependent signaling
% TGI [3, 4]: 13.64%
% dTGI [3, 4]: 17.42%
anti-tumor efficacy (in words) ([3]; JIMT-1, 10 mg/kg (each)): did not result in any significant reduction
